# Measured values taken from patent US5100907A, “Hydantoin esters” (Lonza, Inc., priority 1990, dated 1992).
# Columns and labels:
# Escherichia coli = assay: Antimicrobial study against Escherichia coli (gram-negative bacteria); type: cell-based; conditions: methylolated C8/10 10,800 ppm, methylolated lauric 11,400 ppm, DMDMH 3,000 ppm, others 14,700 ppm
# Method: (§1) The antimicrobial properties of typical esters (I) and (Ia) were tested by minimum inhibitory concentration (MIC) tests, along with certain known substances, against […] strains of organisms: a mold, Aspergillus niger; a gram-positive bacteria, Staphylococcus aureus; and two gram-negative bacteria, Escherichia coli and Pseudomonas aeruginosa. […] These tests were used to determine any effect on biocidal activity of the varying chain length of the ester.
# (§2) The known substances, on which identical tests were also performed, included the biocide, dimethyloldimethylhydantoin or DMDMH (iv), and a series of three surfactants, i.e., the three common emulsifiers, sodium lauryl sulfate (SLS); ethylene glycol distearate (EGDS), in the form of the commercial product PEGOSPERSE 50 DS (Lonza Inc.); and polyoxyethylene 20 sorbitan monoleate (POE 20 SMO), in the form of the commercial product GLYCOSPERSE 0 20 (Lonza Inc.).
# (§3) The tests entailed contaminating a preexisting micro-colony with a known quantity (ppm, concentration) of test material. Each colony was then examined periodically over a one week period. […] A test was deemed non-efficacious when there was no decrease in colony size. In an effort to avoid any possible solvent effect, the micro-study was conducted in a totally aqueous solvent system without use of any other solvent.
# Aspergillus niger = assay: Antimicrobial study against Aspergillus niger (mold); type: cell-based; conditions: methylolated C8/10 10,800 ppm, methylolated lauric 11,400 ppm, DMDMH 3,000 ppm, others 14,700 ppm
# Method: as §1, §2, §3
# [1] = Physical properties of methylolated MHEDMH esters (I): viscosity; type: physicochemical; conditions: at 25° C.
Structure (SMILES),Colony Count (Escherichia coli; Day 0),Colony Count (Escherichia coli; Day 1),Colony Count (Escherichia coli; Day 2),Colony Count (Escherichia coli; Day 3),Colony Count (Escherichia coli; Day 7),Colony Count (Aspergillus niger; Day 0),Colony Count (Aspergillus niger; Day 1),Colony Count (Aspergillus niger; Day 2),Colony Count (Aspergillus niger; Day 3),Colony Count (Aspergillus niger; Day 7),Viscosity [1]
"CCCCCCCCCCCC(=O)OCCN1C(=O)N(CO)C(=O)C1(C)C [Methylolated Lauric Ester, 2-(3-hydroxymethyl-5,5-dimethyl-1,3-diazacyclopentane-2,4-dion-1-yl)-ethylester of lauric acid]",TNC,TNC,"< 0.01 × 1,000","< 0.01 × 1,000","< 0.01 × 1,000","400 × 1,000","2 × 1,000","< 0.01 × 1,000","< 0.01 × 1,000","< 0.01 × 1,000",
"CCCCCCCC/C=C\CCCCCCCC(=O)OCCN1C(=O)N(CO)C(=O)C1(C)C [Methylolated Oleic Ester, 2-(3-hydroxymethyl-5,5-dimethyl-1,3-diazacyclopentane-2,4-dion-1-yl)-ethylester of oleic acid]","4,000 × 1,000","< 0.01 × 1,000","< 0.01 × 1,000","< 0.01 × 1,000","< 0.01 × 1,000","2,000 × 1,000","0.5 × 1,000","< 0.01 × 1,000","< 0.01 × 1,000","< 0.01 × 1,000",501 cts
